According to patent US20150328169A1, “POLYMERIC PARTICLES-BASED TEMOZOLOMIDE DOSAGE FORM” (OY FILANA LTD, priority 2012, published 2015):

Key:
B16 melanoma tumor = assay: Antitumor activity in vivo, solid tumor of B-16 mouse melanoma; parameters: species or system mice; details: 40 mg/kg, 9th day of treatment
[1] = Acute toxicity, single intraperitoneal dose, Litchfield-Wilcoxon; assay type: in vivo, mice; details: mouse, in vivo, ip, i.p. single dose, 14th day
Procedure: (§1) The comparative analysis of the acute toxic action of the temozolomide substance and of the polymeric composition based thereon (Composition 1 as in Example 1) was performed on male and female Balb/c mice weighing 19-21 g as of the time of testing, 6 animals in each group. The mice were kept in standard cages No. 4, in the conditions of unlimited access to water and food, at natural lighting changes. Testing the toxic action of the drugs started upon a two-week isolation period of the animals. The drug was administered intraperitoneally, as a single dose. Water for injection was used as a medium. Upon the drug administration, the animals were continuously monitored for 24 hours. The total observation time was 28 days. According to the research results, the LD50 values were calculated as per the state of animals on the 14th day upon the administration of the drugs. The value of the mean lethal dose (LD50) was determined by Litchfield-Wilcoxon method [Belenky M. L. Elementy kolichestvennoy otsenki farmakologicheskogo effekta [In Russian: Elements of Drug-Induced Effect Quantitative Estimation]/2-e izd. pererab. i dop. L.: Medgiz, 1963. p. 81-106].

Balb/c mice = assay: as above; assay type: in vivo; details: i.p. single dose; for LD16 / LD84 / LD100: 14th day
Procedure: as §1

[2] = clinical trials; cited from earlier work

Cn1nnc2c(C(N)=O)ncn2c1=O [Temozolomide Substance, 8-carbamoyl-3-methyl-imidazo[5,1-d]-1,2,3,5-tetrazin-4-(3H)-one]
tumor growth inhibition (TGI) (B16 melanoma tumor): 90% | LD50 at 14 days ([1]; female Balb/c mice): 467 mg/kg | LD50 at 14 days ([1]; male Balb/c mice): 472 mg/kg | Toxic dose range (Balb/c mice; female Balb/c mice): Toxic dose range was 426.5-526.7 mg/kg | LD16 (Balb/c mice; female Balb/c mice): LD16 426.5 mg/kg | LD84 (Balb/c mice; female Balb/c mice): LD84 506.7 mg/kg | LD100 (Balb/c mice; female Balb/c mice): LD100 526.7 mg/kg | Toxic dose range (Balb/c mice; male Balb/c mice): Toxic dose range was 424.0-543.5 mg/kg | LD16 (Balb/c mice; male Balb/c mice): LD16 424.0 mg/kg | LD84 (Balb/c mice; male Balb/c mice): LD84 519.6 mg/kg | LD100 (Balb/c mice; male Balb/c mice): LD100 543.5 mg/kg | half lifetime [2]: 1.8 h
